Tests used:
Type in all cases: in vivo
Lolium perenne (LOLPE) [1] = experiment: Pre-emergence herbicidal test; settings: 1000 g/ha, evaluated after 13 days
[2] = test system: Amaranthus retoflexus (AMARE); experiment: Pre-emergence herbicidal test; settings: 1000 g/ha, evaluated after 13 days
Setaria faberi (SETFA) [3] = experiment: Pre-emergence herbicidal test; settings: 1000 g/ha, evaluated after 13 days
[4] = test system: Echinochloa crus-galli (ECHCG); experiment: Pre-emergence herbicidal test; settings: 1000 g/ha, evaluated after 13 days
Solanum nigrum (SOLNI) [5] = experiment: Pre-emergence herbicidal test; settings: 1000 g/ha, evaluated after 13 days
[6] = test system: Ipomoea hederacea (IPOHE); experiment: Pre-emergence herbicidal test; settings: 1000 g/ha, evaluated after 13 days
[7] = test system: Ipomoea hederacea (IPOHE); experiment: Post-emergence herbicidal test; settings: 1000 g/ha unless otherwise stated, evaluated after 13 days
Summary of the method: (§1)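 Scores on a five-point scale: 5=81-100%, 4=61-80%, 3=41-60%, 2=21-40%, 1=10-20%, 0=0% damage. These are assessed 13 days after spraying at 1000 g/ha unless stated.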

[8] = test system: Amaranthus retoflexus (AMARE); experiment: Post-emergence herbicidal test; settings: 1000 g/ha unless otherwise stated, evaluated after 13 days
Summary of the method: as §1

[9] = test system: Echinochloa crus-galli (ECHCG); experiment: Post-emergence herbicidal test; settings: 1000 g/ha unless otherwise stated, evaluated after 13 days
Summary of the method: as §1

Solanum nigrum (SOLNI) [10] = experiment: Post-emergence herbicidal test; settings: 1000 g/ha unless otherwise stated, evaluated after 13 days
Summary of the method: as §1

Setaria faberi (SETFA) [11] = experiment: Post-emergence herbicidal test; settings: 1000 g/ha unless otherwise stated, evaluated after 13 days
Summary of the method: as §1

Lolium perenne (LOLPE) [12] = experiment: Post-emergence herbicidal test; settings: 1000 g/ha unless otherwise stated, evaluated after 13 days
Summary of the method: as §1

Question: Which results are given for CSc1cccc2c1c(=O)c(C(=O)O)nn2-c1ccc(Cl)cc1 [Compound P4, 1-(4-chlorophenyl)-5-methylsulfanyl-4-oxo-cinnoline-3-carboxylic acid]?
Answer: percentage damage caused to the plant, five-point scale, LOLPE (Lolium perenne (LOLPE) [1]): 0 (0=0%); percentage damage caused to the plant, five-point scale, AMARE [2]: 0 (0=0%); percentage damage caused to the plant, five-point scale, SETFA (Setaria faberi (SETFA) [3]): 0 (0=0%); percentage damage caused to the plant, five-point scale, ECHCG [4]: 0 (0=0%); percentage damage caused to the plant, five-point scale, SOLNI (Solanum nigrum (SOLNI) [5]): 0 (0=0%); percentage damage caused to the plant, five-point scale, IPOHE [6]: 0 (0=0%); percentage damage caused to the plant, IPOHE (five-point scale) [7]: 0 (0=0%); percentage damage caused to the plant, AMARE (five-point scale) [8]: 0 (0=0%); percentage damage caused to the plant, ECHCG (five-point scale) [9]: 0 (0=0%); percentage damage caused to the plant, SOLNI (five-point scale) (Solanum nigrum (SOLNI) [10]): 0 (0=0%); percentage damage caused to the plant, SETFA (five-point scale) (Setaria faberi (SETFA) [11]): 0 (0=0%); percentage damage caused to the plant, LOLPE (five-point scale) (Lolium perenne (LOLPE) [12]): 0 (0=0%)

Question: How did the “percentage damage caused to the plant, five-point scale, LOLPE” value (Lolium perenne (LOLPE) [1]) turn out when CS(=O)(=O)c1cccc2c1c(=O)c(C(=O)O)nn2-c1ccc(Cl)cc1 [Compound P5, 1-(4-chlorophenyl)-5-methylsulfonyl-4-oxo-cinnoline-3-carboxylic acid] was run?
Answer: 4 (4=61-80%)

Question: What about the “percentage damage caused to the plant, five-point scale, AMARE” value [2] of the same compound?
Answer: 1 (1=10-20%)

Question: And the “percentage damage caused to the plant, five-point scale, SETFA” value (Setaria faberi (SETFA) [3])?
Answer: 4 (4=61-80%)

Question: What about the “percentage damage caused to the plant, five-point scale, ECHCG” value [4] of the same compound?
Answer: 4 (4=61-80%)

Question: And the “percentage damage caused to the plant, five-point scale, SOLNI” value (Solanum nigrum (SOLNI) [5])?
Answer: 1 (1=10-20%)

Question: What about the “percentage damage caused to the plant, five-point scale, IPOHE” value [6] of the same compound?
Answer: 1 (1=10-20%)

Question: And the “percentage damage caused to the plant, IPOHE (five-point scale)” value [7]?
Answer: 1 (1=10-20%)

Question: What about the “percentage damage caused to the plant, AMARE (five-point scale)” value [8] of the same compound?
Answer: 1 (1=10-20%)

Question: And the “percentage damage caused to the plant, ECHCG (five-point scale)” value [9]?
Answer: 4 (4=61-80%)

Question: And the “percentage damage caused to the plant, SOLNI (five-point scale)” value (Solanum nigrum (SOLNI) [10])?
Answer: 4 (4=61-80%)

Question: And the “percentage damage caused to the plant, SETFA (five-point scale)” value (Setaria faberi (SETFA) [11])?
Answer: 4 (4=61-80%)

Question: And the “percentage damage caused to the plant, LOLPE (five-point scale)” value (Lolium perenne (LOLPE) [12])?
Answer: 4 (4=61-80%)
